Reference: article PMC9271885 (eBioMedicine, 2022)
“And” between values parts separate entries of the source, which are not always exact repeats. Identical values can stand only once. Like-named read-outs stand apart in the source and are kept apart here.

Assays:
SARS-CoV-2 [1] = experiment: Hamster model of SARS-CoV-2 infection, intranasal NTZ treatment (lung, plasma, nasal turbinates); type: in vivo, Syrian hamsters; design: Lung Infectious titers / Lung Viral RNA yields / Plasmatic viral RNA yields / Nasal Turbinates Infectious titers / Nasal Turbinates Viral RNA yields: unit not given here
SARS-CoV-2 [2] = experiment: microbe, parasite or virus in culture; type: cell-based
SARS-CoV-2 [3] = experiment: microbe, parasite or virus in culture; type: cell-based; conditions: Severe acute respiratory syndrome coronavirus 2, 48 h; Caco-2 cells, viral RNA, 2 days incubation
SARS-CoV-2 [4] = experiment: Lung histopathological changes in infected hamsters (cumulative score, grade of severity); type: in vivo, Syrian hamsters
Method: The anatomo-histological study was implemented as previously described.[24]^,[26] Briefly, lungs were collected after intratracheal instillation of 4% (w/v) formaldehyde solution, and then fixed 72h at room temperature with a 4% (w/v) formaldehyde solution before being embedded in paraffin. Tissue sections of 3.5µm were stained with hematoxylin-eosin (H&E) and blindly analyzed by a certified veterinary pathologist. Microscopic examination was done using a Nikon Eclipse E400 microscope. Different anatomic compartments were examined (1) for bronchial and alveolar walls, a score of 0 to 4 was assigned based on severity of inflammation; (2) regarding alveoli, a score of 0 to 2 was assigned based on presence and severity of hemorrhagic necrosis; (3) regarding vessel changes (leucocytic accumulation in vascular wall or in endothelial compartment), absence or presence was scored 0 or 1 respectively. A cumulative score was then calculated and assigned to a grade of severity (see Supplementary Table 4).
Groups of 4 hamsters, intranasally infected with 10^4 TCID50 of SARS-CoV-2, were orally treated at a dose of 500mg/kg/day BID for 4 days (0, 1, 2 and 3 dpi) (Figure 4a). Untreated hamsters (group of 4 animals) received the suspension vehicle BID. Animals were sacrificed at 5 dpi and a cumulative score from 0 to 10 (taking into account severity of inflammation, alveolar hemorrhagic necrosis and vessel lesions) was calculated and then assigned to a grade of severity (0=normal; 1=mild; 2=moderate; 3=marked and 4=severe; details in Supplementary Data 4).

in vitro = experiment: in vitro
Method: One day prior to infection, 96-well culture plates were seeded with 5×10^4 Vero E6 or Caco-2 cells in 100µL assay medium per well (containing 2.5% FCS). […] After 15min, a preset amount of virus diluted in 25µL of assay medium was added to the wells. This quantity of virus was calibrated so that the viral replication was still in the exponential growth phase for the readout, as previously described, [28], [29] which correspond here to 150 TCID50 per well. Four “cell control” wells were supplemented with 50µL of assay medium without any compounds or virus. On each culture plate, a positive control compound (Remdesivir, BLDpharm) was added in duplicate with eight 2-fold serial dilutions (0.16µM to 20µM). Plates were incubated for 2 days at 37°C prior to quantification of the viral genome by real-time RT-PCR as described below. For the determination of the 50% cytotoxic concentrations (CC50; compound concentration required to reduce by 50% cell viability), the same culture conditions were used, without addition of the virus, and cell viability was measured using CellTiter Blue® (Promega) following manufacturer's instructions. EC50, EC90 and CC50 were determined using logarithmic interpolation as previously described.[28] The selectivity index of the compounds was calculated as the ratio of the CC50 over the EC50.

[5] = Population pharmacokinetic modelling and simulation of TIZ in hamster (LC-MS/MS, NONMEM); conditions: in vivo
Method: At each time point, approximate 80µl of blood were collected from the submandibular vein or the saphenous vein of hamsters. All samples were transferred into commercial K2-EDTA tubes, placed on ice until processed for plasma extraction by centrifugation and stored at −70°C before analysis. A LC-MS/MS-AI Triple Quad 5500 was used to determine TIZ concentrations. The mobile phase was a gradient of 0.1% formic acid (FA) in water and 0.1% of FA in acetonitrile (ACN), the column was an ACQUITY UPLC HSS T3 1.8 μm 2.1 × 50mm. For mass spectrometry a positive electrospray ionization was used, and a selected reaction monitoring was set to select TIZ: [M+H]+m/z: 266.0 / 121.2 and dexamethasone: [M+H]+m/z: 393.0 / 373.1 as internal standard.
Pharmacokinetic profiles of TIZ in hamster were analyzed using a nonlinear mixed-effects modelling approach. The population pharmacokinetics analysis was performed using NONMEM® version 7.4. The final pharmacokinetic model was established by evaluating one-, two-, and three-compartment disposition models, as well as several different absorption models (i.e. first-order absorption, first-order absorption with lag time, and transit absorption models). The inter-individual variabilities of pharmacokinetic parameters were implemented as a log-normal distribution and the residual unexplained variability was modelled as an exponential error.

[6] = NTZ emulsion 2.8mg/kg/day TID intranasal, 3 dpi, first experiment
[7] = Nitazoxanide IN 2.8mg/kg/day TID, inoculum 104 TCID50, sacrifice day 3, Figure 5, individual animals
[8] = Nitazoxanide IN 2.8mg/kg/day TID, inoculum 104 TCID50, sacrifice day 3, Figure SF 2, individual animals
[9] = Severe acute respiratory syndrome coronavirus 2, Vero C1008, 48 h, Vero E6 cells, viral RNA, 2 days incubation
[10] = Severe acute respiratory syndrome coronavirus 2, Vero C1008, 48 h, Vero E6 cells, viral RNA, 2 days incubation, read-out: EC50
[11] = nitazoxanide 500mg/kg/day per os BID, day of sacrifice 5, individual animals

SMILES: CC(=O)Oc1ccccc1C(=O)Nc1ncc([N+](=O)[O-])s1 [NTZ, Nitazoxanide]
- viral replication in clarified lung homogenates, plasma or nasal turbinates vs untreated (SARS-CoV-2 [1]; NTZ 2.8mg/kg/day TID intranasal, repeated independent experiment): no significant differences
- infectious titers in clarified lung homogenates vs untreated (SARS-CoV-2 [1]; [6]): significant increase
- infectious titers in nasal turbinates vs untreated (SARS-CoV-2 [1]; [6]): no significant differences
- viral RNA load in nasal turbinates vs untreated (SARS-CoV-2 [1]; [6]): significant reduction
- viral RNA yields in clarified lung homogenates vs untreated (SARS-CoV-2 [1]; [6]): No significant differences
- viral RNA yields in plasma vs untreated (SARS-CoV-2 [1]; [6]): No significant differences
- Lung Infectious titers (SARS-CoV-2 [1]; [7]): 7.738 and 7.565 and 7.260 and 7.126 and 7.436 and 7.154
- Lung Viral RNA yields (SARS-CoV-2 [1]; [7]): 8.897 and 8.809 and 8.599
- Nasal Turbinates Infectious titers (SARS-CoV-2 [1]; [7]): 2.483 and 2.551 and 3.472 and 4.082 and 3.115 and 4.229
- Nasal Turbinates Viral RNA yields (SARS-CoV-2 [1]; [7]): 4.363 and 4.565 and 5.134 and 5.523 and 5.262 and 5.603
- Plasmatic viral RNA yields (SARS-CoV-2 [1]; [7]): 3.551 and 4.595 and 4.938 and 4.386 and 5.492 and 4.672
- Lung Infectious titers (SARS-CoV-2 [1]; [8]): 6.420 and 6.814 and 6.658 and 6.401 and 6.100 and 6.859
- Lung Viral RNA yields (SARS-CoV-2 [1]; [8]): 7.102 and 7.087
- Nasal Turbinates Infectious titers (SARS-CoV-2 [1]; [8]): 3.220 and 2.494 and 2.987 and 4.228 and 2.922 and 3.399
- Nasal Turbinates Viral RNA yields (SARS-CoV-2 [1]; [8]): 5.240 and 5.486 and 5.403 and 6.486 and 5.764 and 5.350
- EC90 (SARS-CoV-2 [2]; [9]): 10.3 µM
- EC50 (SARS-CoV-2 [2]; [10]): 3.19 µM
- EC50 (SARS-CoV-2 [2]; Vero E6 cells, viral RNA, 2 days incubation, read-out: EC50): < 5 µM
- EC90 (SARS-CoV-2 [3]): 1.75 µM
- histopathological cumulative scores in lungs vs untreated (SARS-CoV-2 [4]; NTZ 500mg/kg/day BID oral for 4 days, sacrificed at 5 dpi): no significant difference
- Histologic scores Bronchitis (SARS-CoV-2 [4]; [11]): 4 and 3
- Histologic scores Endothelitis / Vasculitis (SARS-CoV-2 [4]; [11]): 1
- Histologic scores Hemorrhagic necrosis (SARS-CoV-2 [4]; [11]): 0 and 1
- Histologic scores Interstitial pneumonia (SARS-CoV-2 [4]; [11]): 4 and 3
- Histologic scores Total score (SARS-CoV-2 [4]; [11]): 9 and 10 and 8 and 7
- Histologic scores Grade (SARS-CoV-2 [4]; nitazoxanide 500mg/kg/day per os BID, day of sacrifice 5, individual animals, grade printed as number): 4 and 3
- CC50 at 2 days (in vitro; African green monkey, CC50, Vero E6 cells, no virus): > 60 µM
- CC50 at 2 days (in vitro; human): 9.15 µM
- V/F volume of distribution of the central compartment, population estimate (%RSE) [5]: 0.128 (48.3) L
- CL/F oral clearance, population estimate (%RSE) ([5]; po): 0.651 (11.9) L/h

SMILES: O=C(Nc1ncc([N+](=O)[O-])s1)c1ccccc1O [TIZ, tizoxanide]
- EC90 (SARS-CoV-2 [2]; [9]): 9.27 µM
- EC50 (SARS-CoV-2 [2]; [10]): 7.48 µM
- EC50 (SARS-CoV-2 [2]; Severe acute respiratory syndrome coronavirus 2, Vero C1008, read-out: EC50 expressed in µg/mL): 1.98 µg/mL
- Selectivity Index (SI=CC50/EC50) (SARS-CoV-2 [2]; Vero E6 cells): higher than 13.3
- CC50 at 2 days (in vitro; African green monkey, CC50): > 60 µM
- Tmax ([5]; Syrian, po): 16.6 min
- half-life ([5]; Syrian, po): 48 min
